Results from PMC8327742 (Haematologica, 2021).
Read-outs that look alike come from different tables or passages of the source.

Assays:
EBF1-PDGFRB [1] = assay: viability assay of transformed Ba/F3 cells; type: cell-based, Homo sapiens; conditions: Ba/F3 cells with wild-type fusion; cell viability read-out
EBF1-PDGFRB [2] = conditions: Ba/F3 cells with mutant fusion; cell viability read-out; gatekeeper; stated gain

IC50 (EBF1-PDGFRB [1]) [nM] | SMILES | IC50 (EBF1-PDGFRB [2]) [nM]
5.26 | Cc1nc(Nc2ncc(C(=O)Nc3c(C)cccc3Cl)s2)cc(N2CCN(CCO)CC2)n1 [dasatinib] | 
5.73 | Cc1ccc(C(=O)Nc2ccc(CN3CCN(C)CC3)c(C(F)(F)F)c2)cc1C#Cc1cnc2cccnn12 [ponatinib] | 23.93
